Test results reported in article PMC7948405, “Small-molecule control of neurotransmitter sulfonation” (The Journal of Biological Chemistry, 2020).

Tests used:
Assay in all cases: Initial-rate inhibition of SULT-catalyzed 1-HP sulfonation
Format in all cases: biochemical
SULT1A1 = molecular target: T1, SULT1A1 (Homo sapiens, UniProt P50225)
T1 construct: E. coli–optimized SULT coding regions were inserted into a pGEX-6P expression vector; N-His/GST/MBP triple tag (PreScission-cleavable) (N, cleaved yes); made in house; host or cells: E. coli BL21(DE3)
Procedure: (§1) The affinity and specificity of CMP12 and CMP13 were evaluated in initial-rate studies using the four major SULT isoforms expressed in the brain and liver ([27])—SULT1A1, SULT1E1, SULT1A3, and SULT2A1. Initial-rate vs [inhibitor] plots are presented in Fig. 3, A–B. The data are normalized to the rates in the absence of inhibitor. Solid lines passing through the data are the predictions of least-squares fitting to a single-binding-site, partial-inhibition model. The best-fit parameters are found in Table 1. […] Both compounds are partial inhibitors, and their percent inhibition values at saturation (83 and 98%, respectively) agree well with the predicted values.
(§2) Figure 3 Affinity, specificity, and binding sites of CMP12 and CMP13. A and B, inhibition studies. Initial rates of SULT-catalyzed 1-HP sulfonation are plotted as a function of inhibitor concentration. Rates are normalized to the rate observed in the absence of the inhibitor. Inhibition of the major SULT isoforms found in the brain and liver were tested. SULT activity was monitored via the sulfonation-dependent change in 1-HP fluorescence (λex = 325 nm, λem = 375 nm ([15], [28])). Reaction conditions were as follows: SULT (20 nM, active sites), PAPS (0.50 mM, 17 × Km), 1-HP (5.0 μM, 61 × Km), KPO4 (50 mM), pH 7.5, 25(±2) °C. Less than 5% of the concentration-limiting substrate was converted to the product at reaction endpoints. Each data point is the average of three independent determinations. The lines passing through the data are least-squares fits to a noncompetitive partial-inhibition model (see Experiment and Initial rate). C, CMP8 competes with CMP12 and CMP13. Initial rates at saturating CMP12 or CMP13 are plotted as a function of CMP8 concentration. Rates are normalized to the rate observed in the absence of the inhibitor. […] Lines passing through the data are the predictions of a noncompetitive partial-inhibition model in which inhibitors compete for the same site (see Experiment and Binding competition). SULT, sulfotransferase; PAP, 3′-phosphoadenosine-5′-phosphate; SULT1A3, sulfotransferase 1A3; PAPS, 3’-phosphoadenosine 5’-phosphosulfate; 1-HP, 1-hydroxypyrene.
(§3) Initial-rate inhibition parameters were obtained from classical initial-rate studies ([16], [28], [43]). Reactions were initiated by addition of PAPS (0.50 mM, 17 × Km) to a solution containing SULT1A3 (20 nM, active sites), inhibitor (0.2–20 × Ki), 1-HP (5.0 μM, 60 × Km), and KPO4 (50 mM), pH 7.5, 25(±2) °C. Reaction progress was monitored via the fluorescence change associated with 1-HP sulfonation (λex = 325 nm, λem = […] ([15], [28])). Less than 5% of the 1-HP was converted to the product at reaction endpoints. Ki and kcat inh (i.e., turnover at saturating inhibitor and substrate) were obtained by fitting to the following quadratic equation for noncompetitive, partial inhibition at [S] >> Km ([44]):(7) v/Vmax=([Etot]+[ESI](α-1))/[Etot] where(8) α=kcat inh/kcat and(9) [ESI]=[([E]tot+[I]tot+Ki)−[([E]tot+[I]tot+Ki)^2−4·[I]tot·[E]tot]^1/2]/2

SULT2A1 = molecular target: T2, SULT2A1 (Homo sapiens, UniProt Q06520); conditions: concentrations as high as 10 μM
T2 construct: E. coli–optimized SULT coding regions were inserted into a pGEX-6P expression vector; N-His/GST/MBP triple tag (PreScission-cleavable) (N, cleaved yes); made in house; host or cells: E. coli BL21(DE3)
T2 sequence (Q06520 1-285): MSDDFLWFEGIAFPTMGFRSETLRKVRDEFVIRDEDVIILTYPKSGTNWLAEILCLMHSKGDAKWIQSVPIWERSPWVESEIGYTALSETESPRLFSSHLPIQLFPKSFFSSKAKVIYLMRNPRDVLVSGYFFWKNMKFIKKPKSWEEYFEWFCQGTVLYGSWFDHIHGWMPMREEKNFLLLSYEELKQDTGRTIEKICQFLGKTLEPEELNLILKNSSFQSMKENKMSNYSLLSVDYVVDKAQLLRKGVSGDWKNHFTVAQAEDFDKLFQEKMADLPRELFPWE
Procedure: as §1, §2, §3

SULT1E1 = molecular target: T3, SULT1E1 (Homo sapiens, UniProt P49888); conditions: concentrations as high as 10 μM
T3 construct: E. coli–optimized SULT coding regions were inserted into a pGEX-6P expression vector; N-His/GST/MBP triple tag (PreScission-cleavable) (N, cleaved yes); made in house; host or cells: E. coli BL21(DE3)
T3 sequence (P49888 1-294): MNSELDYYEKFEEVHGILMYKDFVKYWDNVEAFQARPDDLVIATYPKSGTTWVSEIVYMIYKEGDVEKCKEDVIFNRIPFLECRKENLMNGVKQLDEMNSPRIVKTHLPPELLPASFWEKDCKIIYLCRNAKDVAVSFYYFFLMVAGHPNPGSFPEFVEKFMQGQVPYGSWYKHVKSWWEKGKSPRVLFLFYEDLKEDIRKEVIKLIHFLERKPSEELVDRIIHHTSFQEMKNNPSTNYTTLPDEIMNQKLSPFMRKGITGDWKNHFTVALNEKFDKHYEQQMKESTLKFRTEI
Procedure: as §1, §2, §3

T1 sequence (P50225 whole entry): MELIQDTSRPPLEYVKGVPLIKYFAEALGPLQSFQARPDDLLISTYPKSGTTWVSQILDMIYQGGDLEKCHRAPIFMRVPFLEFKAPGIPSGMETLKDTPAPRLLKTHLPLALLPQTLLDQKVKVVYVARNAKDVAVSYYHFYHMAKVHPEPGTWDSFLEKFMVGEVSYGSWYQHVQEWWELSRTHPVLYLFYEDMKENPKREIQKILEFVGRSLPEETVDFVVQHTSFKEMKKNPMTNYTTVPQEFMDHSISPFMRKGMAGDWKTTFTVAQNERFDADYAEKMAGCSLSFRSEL

SMILES | Ki (SULT1A1; SULT1A1, initial rate) | inhibition of SULT2A1 (SULT2A1) | inhibition of SULT1E1 (SULT1E1) | inhibition of SULT1A1 (SULT1A1; concentrations as high as 10 μM)
CC(C)Cc1ccc2cc(/C=C/C(N)=O)cnc2n1 [CMP13] | 3.1 ± 0.2 µM | behaved similarly | behaved similarly | 
CC(C)Cc1ccc2cc(CCC(N)=O)ccc2n1 [CMP12] |  | no detectable inhibition | no detectable inhibition | no detectable inhibition
